Measured values published in patent publication US20050130890A1, “Amyloid beta is a ligand for FPR class receptors” (priority 2001, published 2005).

Target: T1, mouse FPR2 (Mus musculus, UniProt O88536)
T1 construct: expressed in transfected cells; host or cells: HEK 293
T1 sequence (O88536 1-351): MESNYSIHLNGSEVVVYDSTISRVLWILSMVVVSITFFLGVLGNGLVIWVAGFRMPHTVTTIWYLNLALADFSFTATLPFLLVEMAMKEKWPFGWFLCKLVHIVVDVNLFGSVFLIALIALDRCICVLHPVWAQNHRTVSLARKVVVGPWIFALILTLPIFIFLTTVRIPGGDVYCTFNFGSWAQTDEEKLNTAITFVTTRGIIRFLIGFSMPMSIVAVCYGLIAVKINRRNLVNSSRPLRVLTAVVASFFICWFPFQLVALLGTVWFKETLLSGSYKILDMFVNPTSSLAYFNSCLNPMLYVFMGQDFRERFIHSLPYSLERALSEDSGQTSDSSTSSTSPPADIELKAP
Assay: Calcium flux in FPR2-transfected HEK 293 cells
Format: cell-based
Conditions: 250 ng/ml pertussis toxin for 4 h
Excerpt: Cell Lines. Construction of human embryonic kidney (HEK) 293 cell lines expressing human formylpeptide receptor (FPR), human formylpeptide receptor-like 1 receptor (FPRL1R), mouse FPR, mouse FPR2, mouse lipoxin A4 receptor (encoded by Fpr-rs1), a mouse orphan receptor encoded by Fpr-rs3, and human CCR5 and CX3CR1 has been previously described (Hartt J. K. et al. 1999 J Exp Med 190:741-747; Combadiere C. et al. 1996 J Leukocyte Biol 60:147-152; Combadiere C. et al. 1998 J Biol Chem 273:23799-23804; Gao J.-L. et al. 1998 Genomics 51:270-276). Fpr-rs1 and Fpr-rs3 were tested because of their high structural similarity to the known formylpeptide receptors and because they are also expressed in phagocytes (Gao J.-L. et al. 1998 Genomics 51:270-276). […]
Calcium Flux Analysis. […] Data were recorded every 200 ms as the relative ratio of fluorescence emitted at 510 nm following sequential excitation at 340 and 380 nm. The following ligands were evaluated: Aβ (nonfibrillated, human residues 1-42; California Peptide Research; Napa, Calif.), fMet-Leu-Phe (fMLF; Sigma), ATP (Life Technologies), and the chemokines RANTES (regulated upon activation normal T-cell expressed and secreted), SDF-1 (stromal cell-derived factor-1), 1-309, fractalkine, MIP-1α (macrophage inflammatory protein-1α), and KC (Peprotech, Rocky Hill, N.J.). […]

Substance: pertussis toxin
- effect of pretreatment on Aβ calcium flux signaling: completely blocked
